Test results reported in PubChem BioAssay AID220 (DTP/NCI, 2004).
“And” between values parts separate entries of the source, which are not always exact repeats. Equal entries are not always repeated. Records with an inconclusive call do not appear.

Tested on: CD8F1 mice, subcutaneous mammary adenocarcinoma, T/C%
Assay: NCI In Vivo Anticancer Drug Screen. Data for tumor model Mammary Adenocarcinoma CD8F1 (subcutaneous) in CD8F1
Conditions: higher = larger tumour
Procedure, shortened: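 Transplantable tumors were established in mice, animals were dosed with compound or vehicle, and survival or tumor size was then measured in both groups. The treated result was divided by the control result.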

[1] = endpoint: median tumor weight (est.), dose: 6.25 mg/kg/injection, schedule: Q07DX005 (ip), vehicle: suspension in saline
[2] = endpoint: median tumor weight (est.), dose: 12.5 mg/kg/injection, schedule: Q07DX005 (ip), vehicle: suspension in saline
[3] = endpoint: median tumor weight (est.), dose: 25.0 mg/kg/injection, schedule: Q07DX005 (ip), vehicle: suspension in saline
[4] = endpoint: median tumor weight (est.), dose: 50.0 mg/kg/injection, schedule: Q07DX005 (ip), vehicle: suspension in saline
[5] = endpoint: median tumor weight (est.), dose: 3.12 mg/kg/injection, schedule: Q07DX005 (ip), vehicle: saline with Tween-80
[6] = endpoint: median tumor weight (est.), dose: 6.25 mg/kg/injection, schedule: Q07DX005 (ip), vehicle: saline with Tween-80
[7] = endpoint: median tumor weight (est.), dose: 12.5 mg/kg/injection, schedule: Q07DX005 (ip), vehicle: saline with Tween-80
[8] = endpoint: median tumor weight (est.), dose: 25.0 mg/kg/injection, schedule: Q07DX005 (ip), vehicle: saline with Tween-80
[9] = endpoint: median tumor weight (est.), dose: 50.0 mg/kg/injection, schedule: Q07DX005 (ip), vehicle: saline with Tween-80
[10] = endpoint: median tumor weight (est.), dose: 100.0 mg/kg/injection, schedule: Q07DX005 (ip), vehicle: saline with Tween-80
[11] = endpoint: median tumor weight change, dose: 62.5 mg/kg/injection, schedule: Q01DX001 (ip), vehicle: saline
[12] = endpoint: median tumor weight change, dose: 250.0 mg/kg/injection, schedule: Q01DX001 (ip), vehicle: saline

COc1cc(C)c2c(c1C=O)Oc1c(c(C)c(O)c3c1C(O)OC3=O)OC2=O (configuration not stated)
T/C (endpoint: mean tumor weight, dose: 3.12 mg/kg/injection, schedule: Q07DX005 (ip), vehicle: saline): 42 % of control | T/C (endpoint: mean tumor weight, dose: 6.25 mg/kg/injection, schedule: Q07DX005 (ip), vehicle: saline): 49 % of control | T/C (endpoint: mean tumor weight, dose: 25.0 mg/kg/injection, schedule: Q07DX005 (ip), vehicle: saline): 168 % of control | T/C (endpoint: mean tumor weight, dose: 50.0 mg/kg/injection, schedule: Q07DX005 (ip), vehicle: saline): 61 % of control | T/C (endpoint: median tumor weight (est.), dose: 3.12 mg/kg/injection, schedule: Q07DX005 (ip), vehicle: saline): 97 % of control | T/C (endpoint: median tumor weight (est.), dose: 3.12 mg/kg/injection, schedule: Q07DX005 (ip), vehicle: suspension in saline): 89 % of control | T/C (endpoint: median tumor weight (est.), dose: 6.25 mg/kg/injection, schedule: Q07DX005 (ip), vehicle: saline): 114 % of control | T/C [1]: 104 % of control | T/C [2]: 94 % of control | T/C (endpoint: median tumor weight (est.), dose: 25.0 mg/kg/injection, schedule: Q07DX005 (ip), vehicle: saline): 75 % of control | T/C [3]: 96 % of control | T/C (endpoint: median tumor weight (est.), dose: 50.0 mg/kg/injection, schedule: Q07DX005 (ip), vehicle: saline): 96 % of control | T/C [4]: 88 % of control | T/C (endpoint: median tumor weight (est.), dose: 100.0 mg/kg/injection, schedule: Q07DX005 (ip), vehicle: suspension in saline): 90 % of control

COC(C(=O)C(O)C(C)O)C1CC2C=C3C=C(OC4CC(OC5CC(O)C(OC)C(C)O5)C(OC(C)=O)C(C)O4)C(C)C(=O)C3=C(O)C2=C(O)C1OC1CC(OC2CC(OC3CC(C)(O)C(OC(=O)C(C)C)C(C)O3)C(O)C(C)O2)C(O)C(C)O1 (configuration not stated)
T/C (endpoint: median tumor weight (est.), dose: 25.0 micrograms/kg/injection, schedule: Q07DX005 (ip), vehicle: saline): 74 % of control | T/C (endpoint: median tumor weight (est.), dose: 50.0 micrograms/kg/injection, schedule: Q07DX005 (ip), vehicle: saline): 78 % of control | T/C (endpoint: median tumor weight (est.), dose: 100.0 micrograms/kg/injection, schedule: Q07DX005 (ip), vehicle: saline): 65 % of control | T/C (endpoint: median tumor weight (est.), dose: 200.0 micrograms/kg/injection, schedule: Q07DX005 (ip), vehicle: saline): 48 % of control | T/C (endpoint: median tumor weight (est.), dose: 400.0 micrograms/kg/injection, schedule: Q07DX005 (ip), vehicle: saline): 73 % of control

[I][Hg][CH2]C1COC([CH2][Hg][I])CO1 (configuration not stated)
T/C [1]: 103 % of control | T/C [2]: 167 % of control | T/C [3]: 227 % of control | T/C [4]: 27 % of control

O=C1CC2(C(=O)N1CN1CCCCC1)c1ccccc1-c1ccccc12
T/C (endpoint: median tumor weight (est.), dose: 12.5 mg/kg/injection, schedule: Q07DX005 (ip), vehicle: Klucel (hydroxypropylcellulose) (HPC)): 99 % of control | T/C (endpoint: median tumor weight (est.), dose: 25.0 mg/kg/injection, schedule: Q07DX005 (ip), vehicle: Klucel (hydroxypropylcellulose) (HPC)): 71 % of control | T/C (endpoint: median tumor weight (est.), dose: 100.0 mg/kg/injection, schedule: Q07DX005 (ip), vehicle: Klucel (hydroxypropylcellulose) (HPC)): 85 % of control | T/C (endpoint: median tumor weight (est.), dose: 200.0 mg/kg/injection, schedule: Q07DX005 (ip), vehicle: Klucel (hydroxypropylcellulose) (HPC)): 62 % of control | T/C (endpoint: median tumor weight (est.), dose: 400.0 mg/kg/injection, schedule: Q07DX005 (ip), vehicle: Klucel (hydroxypropylcellulose) (HPC)): 21 % of control

O=C1NC(c2ccccc2)N=C2Oc3ccccc3C=C12 (configuration not stated)
T/C [5]: 116 % of control | T/C [6]: 50 % of control | T/C [7]: 109 % of control | T/C [8]: 78 % of control and 101 % of control | T/C [9]: 95 % of control and 115 % of control | T/C [10]: 63 % of control and 85 % of control

NC(Cc1ccc(N(CCCl)CCCl)cc1)C(=O)O (configuration not stated)
T/C (endpoint: median tumor weight (est.), dose: 2.0 mg/kg/injection, schedule: Q07DX005 (ip), vehicle: Klucel (hydroxypropylcellulose) (HPC)): 39 % of control | T/C (endpoint: median tumor weight (est.), dose: 4.0 mg/kg/injection, schedule: Q07DX005 (ip), vehicle: Klucel (hydroxypropylcellulose) (HPC)): 33 % of control

BrC1c2cccc3cccc(c23)C1Br (configuration not stated)
T/C [7]: 113 % of control | T/C [8]: 88 % of control | T/C [9]: 111 % of control | T/C [10]: 117 % of control | T/C (endpoint: median tumor weight (est.), dose: 200.0 mg/kg/injection, schedule: Q07DX005 (ip), vehicle: saline with Tween-80): 85 % of control

CNC(=O)OCc1c(COC(=O)NC)c(-c2ccccc2)n(C)c1-c1ccccc1
T/C (endpoint: median tumor weight change, dose: 31.25 mg/kg/injection, schedule: Q01DX001 (ip), vehicle: distilled water + Tween-80): 54 % of control

Cc1c(N)nc(C(CC(N)=O)NCC(N)C(N)=O)nc1C(=O)NC(C(=O)NC(C)C(O)C(C)C(=O)NC(C(=O)NCCc1nc(-c2nc(C(=O)NCCCNCCCc3ccccn3)cs2)cs1)C(C)O)C(OC1OC(CO)C(O)C(O)C1OC1OC(CO)C(O)C(OC(N)=O)C1O)c1cnc[nH]1 (configuration not stated)
T/C (endpoint: median tumor weight (est.), dose: 0.37 mg/kg/injection, schedule: Q07DX005 (ip), vehicle: water): 45 % of control | T/C (endpoint: median tumor weight (est.), dose: 0.75 mg/kg/injection, schedule: Q07DX005 (ip), vehicle: water): 76 % of control | T/C (endpoint: median tumor weight (est.), dose: 1.5 mg/kg/injection, schedule: Q07DX005 (ip), vehicle: water): 104 % of control | T/C (endpoint: median tumor weight (est.), dose: 3.2 mg/kg/injection, schedule: Q07DX005 (ip), vehicle: water): 101 % of control | T/C (endpoint: median tumor weight (est.), dose: 3.5 mg/kg/injection, schedule: Q07DX005 (ip), vehicle: water): 166 % of control | T/C (endpoint: median tumor weight (est.), dose: 6.0 mg/kg/injection, schedule: Q07DX005 (ip), vehicle: water): 100 % of control | T/C (endpoint: median tumor weight (est.), dose: 6.4 mg/kg/injection, schedule: Q07DX005 (ip), vehicle: water): 52 % of control | T/C (endpoint: median tumor weight (est.), dose: 7.0 mg/kg/injection, schedule: Q07DX005 (ip), vehicle: water): 104 % of control | T/C (endpoint: median tumor weight (est.), dose: 12.8 mg/kg/injection, schedule: Q07DX005 (ip), vehicle: water): 12 % of control | T/C (endpoint: median tumor weight (est.), dose: 14.0 mg/kg/injection, schedule: Q07DX005 (ip), vehicle: water): 53 % of control | T/C (endpoint: median tumor weight (est.), dose: 28.0 mg/kg/injection, schedule: Q07DX005 (ip), vehicle: water): 3 % of control

N=C(N)Sc1ccccn1
T/C [2]: 156 % of control | T/C [3]: 113 % of control | T/C [4]: 103 % of control | T/C (endpoint: median tumor weight (est.), dose: 400.0 mg/kg/injection, schedule: Q07DX005 (ip), vehicle: suspension in saline): 121 % of control

C=C1C(=O)OC2CC(C)C3C4OC4C(O)C3(C)C(O)C12 (configuration not stated)
T/C [11]: 119 % of control | T/C (endpoint: median tumor weight change, dose: 125.0 mg/kg/injection, schedule: Q01DX001 (ip), vehicle: saline): 80 % of control | T/C [12]: 74 % of control | T/C (endpoint: median tumor weight change, dose: 500.0 mg/kg/injection, schedule: Q01DX001 (ip), vehicle: saline): 88 % of control

COc1ccc(CC2C(=O)NC(C)C(=O)N(C)C3C(=O)N(C)C(Cc4ccc(O)c(c4)Oc4ccc(cc4)C3O)C(=O)NC(C)C(=O)NC(C)C(=O)N2C)cc1 (configuration not stated)
T/C (endpoint: median tumor weight (est.), dose: 0.12 mg/kg/injection, schedule: Q07DX005 (ip), vehicle: suspension in saline): 116 % of control | T/C (endpoint: median tumor weight (est.), dose: 0.25 mg/kg/injection, schedule: Q07DX005 (ip), vehicle: suspension in saline): 93 % of control | T/C (endpoint: median tumor weight (est.), dose: 0.5 mg/kg/injection, schedule: Q07DX005 (ip), vehicle: suspension in saline): 95 % of control | T/C (endpoint: median tumor weight (est.), dose: 1.0 mg/kg/injection, schedule: Q07DX005 (ip), vehicle: suspension in saline): 94 % of control | T/C (endpoint: median tumor weight (est.), dose: 2.0 mg/kg/injection, schedule: Q07DX005 (ip), vehicle: suspension in saline): 99 % of control | T/C (endpoint: median tumor weight (est.), dose: 4.0 mg/kg/injection, schedule: Q07DX005 (ip), vehicle: suspension in saline): 114 % of control

C1CNCOC1
T/C (endpoint: median tumor weight change, dose: 50.0 mg/kg/injection, schedule: Q01DX001 (ip), vehicle: saline): 74 % of control | T/C [11]: 48 % of control | T/C (endpoint: median tumor weight change, dose: 100.0 mg/kg/injection, schedule: Q01DX001 (ip), vehicle: saline): 82 % of control | T/C (endpoint: median tumor weight change, dose: 200.0 mg/kg/injection, schedule: Q01DX001 (ip), vehicle: saline): 90 % of control | T/C [12]: 96 % of control

Cc1cc(N(CC(C)Br)CC(C)Br)ccc1N=Nc1ccccc1C(=O)O (configuration not stated)
T/C (endpoint: median tumor weight (est.), dose: 1.56 mg/kg/injection, schedule: Q07DX005 (ip), vehicle: saline with Tween-80): 79 % of control | T/C [5]: 94 % of control | T/C [6]: 68 % of control | T/C [7]: 47 % of control | T/C [8]: 23 % of control

COc1cccc2c1C(=N)c1c(O)c3c(c(O)c1C2=O)C[C@@](O)(C(C)=O)C[C@@H]3OC1CC(N)C(O)C(C)O1 (some centres not stated)
T/C (endpoint: median tumor weight (est.), dose: 2.0 mg/kg/injection, schedule: Q07DX005 (ip), vehicle: saline): 53 % of control | T/C (endpoint: median tumor weight (est.), dose: 2.97 mg/kg/injection, schedule: Q07DX005 (ip), vehicle: saline): 50 % of control | T/C (endpoint: median tumor weight (est.), dose: 3.0 mg/kg/injection, schedule: Q07DX005 (ip), vehicle: saline): 115 % of control | T/C (endpoint: median tumor weight (est.), dose: 4.45 mg/kg/injection, schedule: Q07DX005 (ip), vehicle: saline): 53 % of control | T/C (endpoint: median tumor weight (est.), dose: 4.5 mg/kg/injection, schedule: Q07DX005 (ip), vehicle: saline): 96 % of control
